Experimental data from patent US4486419A, “5,2',3',4',4",6"-Hexadeoxykanamycin and its 1-N-acylated derivative” (Zaidan Hojin Biseibutsu Kagaku Kenkyu Kai, priority 1982, dated 1984).
Converted amounts (≈) assume the structure as drawn.

What was measured:
[1] = test system: Mycobacterium smegmatis ATCC 607; format: cell-based; conditions: Mycolicibacterium smegmatis, ATCC607; nutrient agar, 37° C., 18 hours
[2] = test system: Klebsiella pneumoniae 22 #3038; format: cell-based; conditions: nutrient agar, 37° C., 18 hours
[3] = test system: Escherichia coli K-12 LA 290 R56; assay: microbe, parasite or virus in culture; format: cell-based; conditions: K12LA290R56, 18 h
[4] = test system: Proteus rettgeri GN311; format: cell-based; conditions: Providencia rettgeri, nutrient agar, 37° C., 18 hours
[5] = test system: Serratia 4; format: cell-based; conditions: nutrient agar, 37° C., 18 hours
[6] = test system: Bacillus anthracis; assay: microbe, parasite or virus in culture; format: cell-based; conditions: 18 h
[7] = test system: Escherichia coli K-12 R5; format: cell-based; conditions: K12R5, 18 h
[8] = test system: Escherichia coli K-12 ML 1629; format: cell-based; conditions: K12ML1629, nutrient agar, 37° C., 18 hours
[9] = test system: Pseudomonas aeruginosa B-13; format: cell-based; conditions: B13, nutrient agar, 37° C., 18 hours, read-out: MIC
[10] = test system: Shigella dysenteriae JS 11910; format: cell-based; conditions: JS11910, 18 h
[11] = test system: Proteus vulgaris OX19; format: cell-based; conditions: nutrient agar, 37° C., 18 hours
[12] = test system: Shigella flexneri 4b JS11811; format: cell-based; conditions: 4BJS11811, nutrient agar, 37° C., 18 hours
[13] = test system: Pseudomonas aeruginosa 99; format: cell-based; conditions: Pseudomonas aeruginosa, 99; nutrient agar, 37° C., 18 hours; read-out: MIC
[14] = test system: Pseudomonas aeruginosa PST1; format: cell-based; conditions: nutrient agar, 37° C., 18 hours
[15] = test system: Pseudomonas aeruginosa H9; format: cell-based; conditions: H9, nutrient agar, 37° C., 18 hours, read-out: MIC
[16] = test system: Corynebacterium bovis 1810; assay: microbe, parasite or virus in culture; conditions: Corynebacterium bovis, 1810, 18 h
Experimental: (§1) Thus, the minimum inhibitory concentrations (mcg/ml) of the hexadeoxykanamycin and of the hexadeoxyamikacin according to this invention against various microorganisms were determined according to serial dilution method on a nutrient agar medium at 37° C., the estimation being made after 18 hours incubation. For comparison purpose, the minimum inhibitory concentrations of amikacin were also determined in the same manner as stated above.

[17] = test system: Serratia marcescens; assay: microbe, parasite or virus in culture; conditions: 18 h
Experimental: as §1

[18] = test system: Staphylococcus aureus Smith; format: cell-based; conditions: nutrient agar, 37° C., 18 hours
[19] = test system: Micrococcus luteus PCI 1001; format: cell-based; conditions: PCI1001, nutrient agar, 37° C., 18 hours
[20] = test system: Staphylococcus epidermidis 109; format: cell-based; conditions: nutrient agar, 37° C., 18 hours
[21] = test system: Providencia Pv 16; format: cell-based; conditions: PV16, nutrient agar, 37° C., 18 hours
[22] = test system: Pseudomonas aeruginosa K-Ps102; format: cell-based; conditions: KPS102, nutrient agar, 37° C., 18 hours, read-out: MIC
[23] = test system: Escherichia coli NIHJ; format: cell-based; conditions: nutrient agar, 37° C., 18 hours
[24] = test system: Escherichia coli K-12; format: cell-based; conditions: K12, nutrient agar, 37° C., 18 hours
[25] = test system: Escherichia coli W677; format: cell-based; conditions: nutrient agar, 37° C., 18 hours
[26] = test system: Pseudomonas aeruginosa GN315; format: cell-based; conditions: nutrient agar, 37° C., 18 hours
[27] = test system: Escherichia coli K-12 J5R 11-2; format: cell-based; conditions: K12J5R112, nutrient agar, 37° C., 18 hours
[28] = test system: Pseudomonas aeruginosa No. 12; format: cell-based; conditions: nutrient agar, 37° C., 18 hours
[29] = test system: Pseudomonas aeruginosa H11; format: cell-based; conditions: nutrient agar, 37° C., 18 hours
[30] = test system: Providencia 2991; format: cell-based; conditions: nutrient agar, 37° C., 18 hours
[31] = test system: Bacillus subtilis PCI 219; format: cell-based; conditions: PCI219, nutrient agar, 37° C., 18 hours
[32] = test system: Shigella sonnei JS11746; format: cell-based; conditions: nutrient agar, 37° C., 18 hours
[33] = test system: Staphylococcus aureus Ap01; format: cell-based; conditions: nutrient agar, 37° C., 18 hours
[34] = test system: Staphylococcus aureus FDA 209P; format: cell-based; conditions: FDA209P, nutrient agar, 37° C., 18 hours
[35] = test system: Serratia SOU; format: cell-based; conditions: nutrient agar, 37° C., 18 hours
[36] = test system: Pseudomonas aeruginosa 21-75; format: cell-based; conditions: 2175, nutrient agar, 37° C., 18 hours
[37] = test system: Pseudomonas aeruginosa ROS134/PU21; format: cell-based; conditions: ROS134/PU21, 18 h
[38] = test system: Pseudomonas aeruginosa TI-13; format: cell-based; conditions: TI13, nutrient agar, 37° C., 18 hours
[39] = test system: Salmonella enteritidis 1891; format: cell-based; conditions: Salmonella enterica, nutrient agar, 37° C., 18 hours
[40] = test system: Bacillus subtilis NRRL B-558; format: cell-based; conditions: NRRLB558, nutrient agar, 37° C., 18 hours
[41] = test system: Pseudomonas aeruginosa A3; format: cell-based; conditions: A3, nutrient agar, 37° C., 18 hours, read-out: MIC
[42] = test system: Escherichia coli K-12 LA 290 R55; assay: microbe, parasite or virus in culture; format: cell-based; conditions: K12LA290R55, 18 h

Compound `NCC[C@H](O)C(=O)N[C@@H]1C[C@H](N)[C@@H](O[C@H]2O[C@H](CN)[C@@H](O)[C@H](O)[C@H]2O)[C@H](O)[C@H]1O[C@H]1O[C@H](CO)[C@@H](O)[C@H](N)[C@H]1O` [Amikacin, 1-N-[(S)-4-amino-2-hydroxybutyryl]kanamycin A, reference compound] has an MIC [1] of 0.78 µg/mL (≈ 1.33 µM), an MIC [2] of 3.13 µg/mL (≈ 5.34 µM) and an MIC [3] of 0.78 µg/mL (≈ 1.33 µM). It also gave an MIC [4] of 0.39 µg/mL (≈ 0.666 µM), an MIC [5] of 3.13 µg/mL (≈ 5.34 µM) and an MIC [6] of 0.78 µg/mL (≈ 1.33 µM). For the same compound, the MIC [7] was 100 µg/mL (≈ 171 µM), the MIC [8] was 1.56 µg/mL (≈ 2.66 µM) and the MIC [9] was 6.25 µg/mL (≈ 10.7 µM). It also gave an MIC [10] of 3.13 µg/mL (≈ 5.34 µM), an MIC [11] of 1.56 µg/mL (≈ 2.66 µM) and an MIC [12] of 3.13 µg/mL (≈ 5.34 µM). It also gave an MIC [13] of 6.25 µg/mL (≈ 10.7 µM), an MIC [14] of 12.5 µg/mL (≈ 21.3 µM) and an MIC [15] of 6.25 µg/mL (≈ 10.7 µM). It also gave an MIC [16] of 1.56 µg/mL (≈ 2.66 µM), an MIC [17] of 1.56 µg/mL (≈ 2.66 µM) and an MIC [18] of 0.39 µg/mL (≈ 0.666 µM). The MIC [19] was 3.13 µg/mL (≈ 5.34 µM), the MIC [20] was 3.13 µg/mL (≈ 5.34 µM) and the MIC [21] was 1.56 µg/mL (≈ 2.66 µM). The MIC [22] was 6.25 µg/mL (≈ 10.7 µM), the MIC [23] was 1.56 µg/mL (≈ 2.66 µM) and the MIC [24] was 0.39 µg/mL (≈ 0.666 µM). For the same compound, the MIC [25] was 0.78 µg/mL (≈ 1.33 µM), the MIC [26] was 25 µg/mL (≈ 42.7 µM) and the MIC [27] was 1.56 µg/mL (≈ 2.66 µM). It also gave an MIC [28] of 3.13 µg/mL (≈ 5.34 µM), an MIC [29] of 12.5 µg/mL (≈ 21.3 µM) and an MIC [30] of 1.56 µg/mL (≈ 2.66 µM). The MIC [31] was 0.39 µg/mL (≈ 0.666 µM), the MIC [32] was 3.13 µg/mL (≈ 5.34 µM) and the MIC [33] was 1.56 µg/mL (≈ 2.66 µM). For the same compound, the MIC [34] was 0.78 µg/mL (≈ 1.33 µM), the MIC [35] was 25 µg/mL (≈ 42.7 µM) and the MIC [36] was 12.5 µg/mL (≈ 21.3 µM). It also gave an MIC [37] of 100 µg/mL (≈ 171 µM), an MIC [38] of 3.13 µg/mL (≈ 5.34 µM) and an MIC [39] of 1.56 µg/mL (≈ 2.66 µM). The MIC [40] was 0.39 µg/mL (≈ 0.666 µM), the MIC [41] was < 0.2 µg/mL and the MIC [42] was 1.56 µg/mL (≈ 2.66 µM).
